Measurements taken from patent US7989451B2, “Tricyclic 1,2,4-triazine oxides and compositions for therapeutic use in cancer treatments” (Auckland Uniservices Limited, priority 2005, dated 2011).
Structures can show the parent of a compound that is named as a salt.

melting point	Structure (SMILES)
130 to 131 °C	[O-][n+]1ncnc2cc3c(cc21)CCC3 [Compound 64, 7,8-Dihydro-6H-indeno[5,6-e][1,2,4]triazine 1-Oxide]
261 to 265 °C	Nc1nc2cc3c(cc2[n+]([O-])n1)CCCCC3 [Compound 186, 7,8,9,10-Tetrahydro-6H-cyclohepta[g][1,2,4]benzotriazin-3-amine 1-Oxide]
107 to 110 °C	COCCN(C)CCNc1nc2cc3c(cc2[n+]([O-])n1)CCC3 [Compound 30, N^1-(1-Oxido-7,8-dihydro-6H-indeno[5,6-e][1,2,4]triazin-3-yl)-N^2-(2-methoxyethyl)-N^2-methyl-1,2-ethanediamine]
101 to 102 °C	COC1CN(CCCNc2nc3cc4c(cc3[n+]([O-])n2)CCC4)C1 [Compound 54, N-[3-(3-Methoxy-1-azetidinyl)propyl]-7,8-dihydro-6H-indeno[5,6-e][1,2,4]triazin-3-amine 1-Oxide]
152 to 154 °C	[O-][n+]1nc(NCCCN2CCOCC2)nc2cc3c(cc21)CCO3 [Compound 211, N-[3-(4-Morpholinyl)propyl]-7,8-dihydrofuro[2,3-g][1,2,4]benzotriazin-3-amine 1-Oxide]
153 to 157 °C	CN(C)CCNc1nc2cc3c(cc2[n+]([O-])n1)OCC3 [Compound 197, N^1,N^1-Dimethyl-N^2-(1-oxido-6,7-dihydrofuro[3,2-g][1,2,4]benzotriazin-3-yl)-1,2-ethanediamine]
142 to 144 °C	[O-][n+]1nc(NCCCN2CCOCC2)nc2cc3c(cc21)OCC3 [Compound 199, N-[3-(4-Morpholinyl)propyl]-6,7-dihydrofuro[3,2-g][1,2,4]benzotriazin-3-amine 1-Oxide]
123 to 124 °C	COC1CCCN(CCNc2nc3cc4c(cc3[n+]([O-])n2)CCC4)C1 (centres unmarked) [Compound 40, N-[2-(3-Methoxy-1-piperidinyl)ethyl]-7,8-dihydro-6H-indeno[5,6-e][1,2,4]triazin-3-amine 1-Oxide]
255 to 257 °C	Nc1nc2cc3c(cc2[n+]([O-])n1)CC(CO)C3 (centres unmarked) [Compound 124, (3-Amino-1-oxido-7,8-dihydro-6H-indeno[5,6-e][1,2,4]triazin-7-yl)methanol]
126 to 130 °C	CCN(CC)CCNc1nc2ccc3c(c2[n+]([O-])n1)CCC3 [Compound 8, N^1,N^1-Diethyl-N^2-(1-oxido-8,9-dihydro-7H-indeno[5,4-e][1,2,4]triazin-3-yl)-1,2-ethanediamine]
170 to 175 °C	CN1CCc2cc3c(cc2C1)nc(N)n[n+]3[O-] [Compound 256, 7-Methyl-6,7,8,9-tetrahydro[1,2,4]triazino[6,5-g]isoquinolin-3-amine 1-Oxide]
129 to 131 °C	CCc1nc2cc3c(cc2[n+]([O-])n1)CCN(C)C3 [Compound 260, 3-Ethyl-7-methyl-6,7,8,9-tetrahydro[1,2,4]triazino[6,5-g]isoquinoline 1-Oxide]
150 to 151 °C	CCN(CC)CCNc1nc2cc3c(cc2[n+]([O-])n1)CCO3 [Compound 209, N^1,N^1-Diethyl-N^2-(1-oxido-7,8-dihydrofuro[2,3-g][1,2,4]benzotriazin-3-yl)-1,2-ethanediamine]
186 to 190 °C	CN(C)CCNc1nc2ccc3c(c2[n+]([O-])n1)CCC3 [Compound 6, N^1,N^1-Dimethyl-N^2-(1-oxido-8,9-dihydro-7H-indeno[5,4-e][1,2,4]triazin-3-yl)-1,2-ethanediamine]
148 to 151 °C	CCCN(CCC)CCNc1nc2ccc3c(c2[n+]([O-])n1)CCC3 [Compound 10, N^1-(1-Oxido-8,9-dihydro-7H-indeno[5,4-e][1,2,4]triazin-3-yl)-N^2,N^2-dipropyl-1,2-ethanediamine]
131 to 133 °C	COC1CCN(CCNc2nc3cc4c(cc3[n+]([O-])n2)CCC4)CC1 [Compound 42, N-[2-(4-Methoxy-1-piperidinyl)ethyl]-7,8-dihydro-6H-indeno[5,6-e][1,2,4]triazin-3-amine 1-Oxide]
96 to 99 °C	CCc1nc2cc3c(cc2[n+]([O-])n1)CC(CCO)C3 (centres unmarked) [Compound 161, 2-(3-Ethyl-1-oxido-7,8-dihydro-6H-indeno[5,6-e][1,2,4]triazin-7-yl)ethanol]
275 to 279 °C (dec.)	Nc1nc2ccc3c(c2[n+]([O-])n1)CCCO3 [Compound 234, 9,10-Dihydro-8H-chromeno[6,5-e][1,2,4]triazin-3-amine 1-Oxide]
192 to 194 °C	[O-][n+]1nc(I)nc2cc3c(cc21)CCO3 [Compound 213, 3-Iodo-7,8-dihydrobenzofuro[6,5-e][1,2,4]triazine 1-Oxide]
149 to 151 °C	CN(C)CCNc1nc2cc3c(cc2[n+]([O-])n1)CCCC3 [Compound 177, N^1-(1-Oxido-6,7,8,9-tetrahydronaphtho[2,3-e][1,2,4]triazin-3-yl)-N^2,N^2-dimethyl-1,2-ethanediamine]
140 to 142 °C	O=CCCc1nc2cc3c(cc2[n+]([O-])n1)CCO3 [Compound 214, 3-(1-Oxido-7,8-dihydrofuro[2,3-g][1,2,4]benzotriazin-3-yl)propanal]
95 to 97 °C	CCCN(CCC)CCNc1nc2cc3c(cc2[n+]([O-])n1)CCC3 [Compound 28, N^1-(1-Oxido-7,8-dihydro-6H-indeno[5,6-e][1,2,4]triazin-3-yl)-N^2,N^2-dipropyl-1,2-ethanediamine]
111 to 112 °C	CCc1nc2cc3c(cc2[n+]([O-])n1)CC(CN1CCOCC1)C3 (centres unmarked) [Compound 143, 3-Ethyl-7-(4-morpholinylmethyl)-7,8-dihydro-6H-indeno[5,6-e][1,2,4]triazine 1-Oxide]

More lines, now with the values behind:

Structure (SMILES)	melting point
[O-][n+]1nc(I)nc2cc3c(cc21)CC(CCOC1CCCCO1)C3 (centres unmarked) [Compound 159, 3-Iodo-7-(2-(tetrahydro-2H-pyran-2-yloxy)ethyl)-7,8-dihydro-6H-indeno[5,6-e][1,2,4]triazine 1-Oxide]	80 to 82 °C
CC1Cc2cc3nc(NCCN(C)C)n[n+]([O-])c3cc2C1 (centres unmarked) [Compound 96, N^1,N^1-Dimethyl-N^2-(7-methyl-1 oxido-7,8-dihydro-6H-indeno[5,6-e][1,2,4]triazin-3-yl)-1,2-ethanediamine]	119 to 121 °C
CCNc1n[n+]([O-])c2cc3c(cc2[n+]1[O-])CC(CO)C3 (centres unmarked) [Compound 127, [3-(Ethylamino)-1,4-dioxido-7,8-dihydro-6H-indeno[5,6-e][1,2,4]triazin-7-yl]methanol]	153 to 155 °C
CC(C)(C)OP(=O)(OCCCc1n[n+]([O-])c2cc3c(cc2[n+]1[O-])CCC3)OC(C)(C)C [Compound 73, 3-(3-(Di-tert-butoxyphosphoryloxy)propyl)-7,8-dihydro-6H-indeno[5,6-e][1,2,4]triazine 1,4-Dioxide]	129 to 131 °C
CCNc1nc2cc3c(cc2[n+]([O-])n1)CC(N(C)C)C3 (centres unmarked) [Compound 113, N^3-Ethyl-N^7,N^7-dimethyl-7,8-dihydro-6H-indeno[5,6-e][1,2,4]triazine-3,7-diamine 1-Oxide]	187 to 190 °C
CN(C)CCNc1nc2ccc3c(c2[n+]([O-])n1)CCCO3 [Compound 236, N^1,N^1-Dimethyl-N^2-(1-oxido-9,10-dihydro-8H-chromeno[6,5-e][1,2,4]triazin-3-yl)-1,2-ethanediamine]	119 to 120 °C
Nc1nc2cc3c(cc2[n+]([O-])n1)OCCC3 [Compound 239, 7,8-Dihydro-6H-chromeno[6,7-e][1,2,4]triazin-3-amine 1-Oxide]	280 to 283 °C
COC1CCN(CCCNc2nc3cc4c(cc3[n+]([O-])n2)CCC4)CC1 [Compound 58, N-[3-(4-Methoxy-1-piperidinyl)propyl]-7,8-dihydro-6H-indeno[5,6-e][1,2,4]triazin-3-amine 1-Oxide]	120 to 121 °C
[O-][n+]1nc(CCCN2CCOCC2)nc2cc3c(cc21)CCO3 [Compound 215, 3-[3-(4-Morpholinyl)propyl]-7,8-dihydrofuro[2,3-g][1,2,4]benzotriazine 1-Oxide]	96 to 99 °C
[O-][n+]1nc(NCCN2CCCCCC2)nc2cc3c(cc21)CCC3 [Compound 46, N-[2-(1-Azepanyl)ethyl]-7,8-dihydro-6H-indeno[5,6-e][1,2,4]triazin-3-amine 1-Oxide]	121 to 123 °C
CCNc1nc2cc3c(cc2[n+]([O-])n1)CC(CO)C3 (centres unmarked) [Compound 126, [3-(Ethylamino)-1-oxido-7,8-dihydro-6H-indeno[5,6-e][1,2,4]triazin-7-yl]methanol]	150 °C
[O-][n+]1nc(CCCO)nc2cc3c(cc21)CCC3 [Compound 70, 3-(1-Oxido-7,8-dihydro-6H-indeno[5,6-e][1,2,4]triazin-3-yl)-1-propanol]	131 to 133 °C
CCc1n[n+]([O-])c2cc3c(cc2[n+]1[O-])CC(CCN1CCOCC1)C3 (centres unmarked) (as salt: hydrochloride) [Compound 164, 3-Ethyl-7-[2-(4-morpholinyl)ethyl]-7,8-dihydro-6H-indeno[5,6-e][1,2,4]triazine 1,4-Dioxide]	131 to 133 °C
Nc1nc2ccc3c(c2[n+]([O-])n1)CCC3 [Compound 4, 8,9-Dihydro-7H-indeno[5,4-e][1,2,4]triazin-3-amine 1-Oxide]	270 to 274 °C
[O-][n+]1nc(Cl)nc2cc3c(cc21)CCO3 [Compound 206, 3-Chloro-7,8-dihydrofuro[2,3-g][1,2,4]benzotriazine 1-Oxide]	203 to 205 °C
[O-][n+]1nc(NCCCO)nc2cc3c(cc21)CCC3 [Compound 50, 3-[(1-Oxido-7,8-dihydro-6H-indeno[5,6-e][1,2,4]triazin-3-yl)amino]-1-propanol]	190 to 190.5 °C
[O-][n+]1nc(NCCN2CCCCC2)nc2cc3c(cc21)CCC3 [Compound 36, N-[2-(1-Piperidinyl)ethyl]-7,8-dihydro-6H-indeno[5,6-e][1,2,4]triazin-3-amine 1-Oxide]	151 to 153 °C
[O-][n+]1nc(NCCO)nc2cc3c(cc21)CCC3 [Compound 24, 2-[(1-Oxido-7,8-dihydro-6H-indeno[5,6-e][1,2,4]triazin-3-yl)amino]ethanol]	222 to 224 °C
